Results as given in the supplement of paper PMC13207355.

Key:
Settings in all cases: exposure time: 72 h
[1] = test system: E13 (patient-derived glioblastoma stem cells of classical subtype); experiment: surviving fraction (nuclei count normalised to DMSO); higher = more cells surviving (less toxic)
[2] = test system: E21 (patient-derived glioblastoma stem cells of mesenchymal subtype); experiment: as above
[3] = test system: E28 (patient-derived glioblastoma stem cells of classical subtype); experiment: as above
[4] = test system: E31 (patient-derived glioblastoma stem cells of proneural subtype); experiment: as above
[5] = test system: E34 (patient-derived glioblastoma stem cells of proneural subtype); experiment: as above
[6] = test system: E57 (patient-derived glioblastoma stem cells of mesenchymal subtype); experiment: as above
[7] = test system: FT3469 (normal neural stem cell line); experiment: as above
[8] = test system: E13; experiment: phenotypic distance (Euclidean, principal components) from DMSO controls (arbitrary units); higher = stronger morphological change
[9] = test system: E21; experiment: as above
[10] = test system: E28; experiment: as above
[11] = test system: E31; experiment: as above
[12] = test system: E34; experiment: as above
[13] = test system: E57; experiment: as above
[14] = test system: FT3469; experiment: as above
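For phenotypic distance (Euclidean, principal components) from DMSO controls in this document: cell Painting imaging in 384-well plates, CellProfiler features reduced to at least 20 principal components, Euclidean distance versus same-plate DMSO vehicle wells (0.1% v/v), median over six images per well.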
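For surviving fraction (nuclei count normalised to DMSO) in this document: nuclei counted by high-content imaging of Hoechst-stained cells in laminin-coated 384-well plates, relative to 0.1% DMSO vehicle wells, with staurosporine as cell-death control.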

## OCCN1C[C@H](O)[C@@H](O)[C@H](O)[C@H]1CO [Miglitol]
[1]; 4.11523 nM
  surviving fraction: 0.886
[1]; 12.34567901 nM
  surviving fraction: 0.888
[1]; 37.037 nM
  surviving fraction: 0.938
[1]; 111.1111111 nM
  surviving fraction: 0.955
[1]; 333.333 nM
  surviving fraction: 0.951
[1]; 1000 nM
  surviving fraction: 0.889
[1]; 3000 nM
  surviving fraction: 0.98
[2]; 4.11523 nM
  surviving fraction: 0.916
[2]; 12.34567901 nM
  surviving fraction: 0.86
[2]; 37.037 nM
  surviving fraction: 0.996
[2]; 111.1111111 nM
  surviving fraction: 0.946
[2]; 333.333 nM
  surviving fraction: 0.949
[2]; 1000 nM
  surviving fraction: 0.914
[2]; 3000 nM
  surviving fraction: 0.993
[3]; 4.11523 nM
  surviving fraction: 0.997
[3]; 12.34567901 nM
  surviving fraction: 0.913
[3]; 37.037 nM
  surviving fraction: 1.12
[3]; 111.1111111 nM
  surviving fraction: 0.877
[3]; 333.333 nM
  surviving fraction: 1.06
[3]; 1000 nM
  surviving fraction: 1.14
[3]; 3000 nM
  surviving fraction: 1.03
[4]; 4.11523 nM
  surviving fraction: 0.768
[4]; 12.34567901 nM
  surviving fraction: 1.15
[4]; 37.037 nM
  surviving fraction: 0.954
[4]; 111.1111111 nM
  surviving fraction: 0.999
[4]; 333.333 nM
  surviving fraction: 1.01
[4]; 1000 nM
  surviving fraction: 1.17
[4]; 3000 nM
  surviving fraction: 0.956
[5]; 4.11523 nM
  surviving fraction: 0.825
[5]; 12.34567901 nM
  surviving fraction: 1.07
[5]; 37.037 nM
  surviving fraction: 0.964
[5]; 111.1111111 nM
  surviving fraction: 1.17
[5]; 333.333 nM
  surviving fraction: 1.04
[5]; 1000 nM
  surviving fraction: 0.915
[5]; 3000 nM
  surviving fraction: 1.14
[6]; 4.11523 nM
  surviving fraction: 1.03
[6]; 12.34567901 nM
  surviving fraction: 1.03
[6]; 37.037 nM
  surviving fraction: 1.06
[6]; 111.1111111 nM
  surviving fraction: 0.966
[6]; 333.333 nM
  surviving fraction: 0.955
[6]; 1000 nM
  surviving fraction: 0.997
[6]; 3000 nM
  surviving fraction: 1.1
[7]; 4.11523 nM
  surviving fraction: 0.878
[7]; 12.34567901 nM
  surviving fraction: 0.954
[7]; 37.037 nM
  surviving fraction: 0.984
[7]; 111.1111111 nM
  surviving fraction: 0.963
[7]; 333.333 nM
  surviving fraction: 1.06
[7]; 1000 nM
  surviving fraction: 1.07
[7]; 3000 nM
  surviving fraction: 1.14
[8]; 4.11523 nM
  phenotypic distance: 0.578
[8]; 12.34567901 nM
  phenotypic distance: 0.499
[8]; 37.037 nM
  phenotypic distance: 0.296
[8]; 111.1111111 nM
  phenotypic distance: 0.445
[8]; 333.333 nM
  phenotypic distance: 0.7
[8]; 1000 nM
  phenotypic distance: 0.441
[8]; 3000 nM
  phenotypic distance: 0.584
[9]; 4.11523 nM
  phenotypic distance: 0.913
[9]; 12.34567901 nM
  phenotypic distance: 0.734
[9]; 37.037 nM
  phenotypic distance: 0.73
[9]; 111.1111111 nM
  phenotypic distance: 0.986
[9]; 333.333 nM
  phenotypic distance: 0.413
[9]; 1000 nM
  phenotypic distance: 0.51
[9]; 3000 nM
  phenotypic distance: 0.737
[10]; 4.11523 nM
  phenotypic distance: 0.488
[10]; 12.34567901 nM
  phenotypic distance: 0.943
[10]; 37.037 nM
  phenotypic distance: 1.54
[10]; 111.1111111 nM
  phenotypic distance: 0.838
[10]; 333.333 nM
  phenotypic distance: 0.651
[10]; 1000 nM
  phenotypic distance: 0.777
[10]; 3000 nM
  phenotypic distance: 0.637
[11]; 4.11523 nM
  phenotypic distance: 0.64
[11]; 12.34567901 nM
  phenotypic distance: 0.762
[11]; 37.037 nM
  phenotypic distance: 0.853
[11]; 111.1111111 nM
  phenotypic distance: 0.501
[11]; 333.333 nM
  phenotypic distance: 0.613
[11]; 1000 nM
  phenotypic distance: 0.778
[11]; 3000 nM
  phenotypic distance: 0.647
[12]; 4.11523 nM
  phenotypic distance: 0.65
[12]; 12.34567901 nM
  phenotypic distance: 0.713
[12]; 37.037 nM
  phenotypic distance: 0.625
[12]; 111.1111111 nM
  phenotypic distance: 0.702
[12]; 333.333 nM
  phenotypic distance: 0.456
[12]; 1000 nM
  phenotypic distance: 0.679
[12]; 3000 nM
  phenotypic distance: 0.758
[13]; 4.11523 nM
  phenotypic distance: 0.469
[13]; 12.34567901 nM
  phenotypic distance: 0.849
[13]; 37.037 nM
  phenotypic distance: 0.936
[13]; 111.1111111 nM
  phenotypic distance: 0.643
[13]; 333.333 nM
  phenotypic distance: 0.643
[13]; 1000 nM
  phenotypic distance: 0.624
[13]; 3000 nM
  phenotypic distance: 0.981
[14]; 4.11523 nM
  phenotypic distance: 3.01
[14]; 12.34567901 nM
  phenotypic distance: 0.609
[14]; 37.037 nM
  phenotypic distance: 0.908
[14]; 111.1111111 nM
  phenotypic distance: 0.767
[14]; 333.333 nM
  phenotypic distance: 0.996
[14]; 1000 nM
  phenotypic distance: 0.816
[14]; 3000 nM
  phenotypic distance: 0.734
